Assay results taken from patent US20120142645A1, “NEUROACTIVE STEROID COMPOSITIONS AND METHODS OF USE FOR LOWERING CHOLESTEROL” (priority 2009, published 2012).
“Also recorded” adds a separate entry of the source. Marks after values point to notes of the source that are not given here.

What was measured:
[1] = system: patients with schizophrenia or schizoaffective disorder; experiment: Serum analytes and EKG QTc interval at screening and final visit; same trial; type: in vivo, human; settings: for Serum LDL levels post-treatment compared to baseline: paired t-test p=0.002; for EKG QTc interval / Serum Cholesterol / Serum Glucose / Serum Prolactin / Serum TSH / Serum Triglycerides / Serum LDL / Serum HDL: mean ± SD; for Serum LDL: n = 7; for Serum HDL: n = 8
Source text: (§1) During the screening visit (Visit 1), patients received a physical exam, vital signs, and electrocardiogram (EKG), as well as baseline laboratory measures consisting of serum electrolytes, glucose, creatinine, blood urea nitrogen (chemistry 7 panel), liver function tests, complete blood count (CBC), urinalysis, urine toxicology test, thyroid stimulating hormone (TSH), and prolactin, and serum pregnancy test if female. These tests were also repeated at the completion of the study (Visit 6). In addition, patients received an interim EKG 4 weeks post-randomization, as well as a serum pregnancy test if female (Visit 4). Patients also received a chemistry 7 panel, CBC, and liver function tests at Visits 2, 3, 4, and 5 (i.e., at all study visits). Psychiatric symptoms were assessed at baseline using the Scale for the Assessment of Negative Symptoms (Andreasen, 1983), the Positive and Negative Symptom Scale (PANSS; Kay et al., 1987), the Calgary Depression Rating Scale (CDRS; Addington et al., 1990), the Clinical Global Impressions Improvement (CGI-I) and Severity (CGI-S) scales, the Barnes Akathisia Scale (BAS; Barnes, 1989), the Simpson Angus Scale for Extrapyramidal Symptoms (SAS; Simpson & Angus, 1970), the Quality of Life Scale (QOL; Heinrichs et al., 1984), and the Hillside Side Effects Scale. One research nurse with five years of experience in the conduction of schizophrenia clinical trials completed both psychiatric and cognitive assessments throughout the study, and was trained to one point of divergence on each PANSS item.

[2] = Serum neurosteroid and steroid levels (GC/MS, RIA) at baseline and post-treatment; same trial; settings: for Serum Androstenedione level / Serum Cortisol level / Serum DHEA level / Serum DHEAS level / Serum PGS (pregnenolone sulfate) level / Serum Total testosterone level / Serum Estradiol level / Serum ALLO (allopregnanolone) level / Serum Free testosterone level / Serum PG (pregnenolone) level / Serum Progesterone level: mean ± SD; for Serum Estradiol level: n = 7; for Serum ALLO (allopregnanolone) level / Serum Free testosterone level / Serum PG (pregnenolone) level / Serum Progesterone level: n = 8; for Serum testosterone, free testosterone, cortisol, DHEA, estradiol, or androstenedione levels: after 8 weeks of pregnenolone vs baseline
Protocol: Study drug was dispensed every 2 weeks at each study visit at fixed escalating doses as follows: Visit 1: Two-week single-blind placebo lead-in phase, one placebo tablet twice each day (all pts), Visit 2: Randomization to PREG 50 mg twice each day (100 mg/day total) or placebo for 2 wks, Visit 3: PREG 150 mg twice each day (300 mg/day total) or placebo for 2 weeks, Visit 4: PREG 250 mg twice each day (500 mg/day total) or placebo for 2 weeks, Visit 5: PREG 250 mg twice each day (500 mg/day total) or placebo continued for 2 weeks. Patients thus received PREG 500 mg per day in divided doses during the last 4 weeks of the study. Patients also received the Hillside Adverse Events Scale at Visits 2-6, and during staggered telephone check-in calls every two weeks, beginning one week into the single-blind placebo lead-in phase.
Neurosteroid Analyses. […] One mL of serum was extracted three times in ethyl acetate prior to high performance liquid chromatography (HPLC) purification utilizing tetrahydrofuran, ethanol, and hexane in the mobile phase. All samples were injected in duplicate. […] All other serum steroid levels were determined utilizing commercially available radioimmunoassay (RIA) kits according to manufacturer directions (progesterone, cortisol, testosterone, free testosterone, and DHEAS: Diagnostic System Laboratories, Webster, Tex.). DHEA serum levels were determined utilizing a kit from ICN Pharmaceuticals (Costa Mesa, Calif.).
Statistical Analysis. Primary endpoints were changes from baseline at Visit 2 following a two-week placebo lead-in period (all patients) to final assessment at Visit 6 in cognitive symptoms (as assessed by BAGS and MATRICS composite scores) and negative symptoms (as assessed by SANS total scores). […] Student's t-tests were conducted on the change scores between treatment groups in this proof-of-concept study (two-tailed alpha p=0.05 for each statistical test).

[3] = system: patients with schizophrenia or schizoaffective disorder; experiment: Side effect profile and tolerability (Hillside AE Form); same trial; type: in vivo, human
Source text: as §1

[4] = after 8 weeks of pregnenolone, listed as Pregnenolone
[5] = after 8 weeks of pregnenolone, listed as pregnenolone
[6] = change from baseline pre-randomization, n = 9
[7] = change from baseline pre-randomization, n = 9, mild in all subjects
[8] = change from baseline pre-randomization, n = 9, mild in all subjects, listed as pregnenolone

Compound: CC(=O)[C@H]1CC[C@H]2[C@@H]3CC=C4C[C@@H](O)CC[C@]4(C)[C@H]3CC[C@]12C [PG, pregnenolone]
- EKG QTc interval following treatment ([1]; 8 weeks of pregnenolone): no change
- Laboratory parameters including glucose, triglycerides, HDL, TSH, and prolactin, post-treatment compared to baseline ([1]; 8 weeks of pregnenolone): no significant changes
- Serum LDL levels post-treatment compared to baseline ([1]; 8 weeks of pregnenolone, listed as Pregnenolone): significantly decreased
- Serum LDL levels post-treatment compared to baseline ([1]; 8 weeks of pregnenolone, listed as pregnenolone): significantly reduced; also recorded: significantly decreased
- Cholesterol levels following treatment compared to baseline ([1]; 8 weeks of pregnenolone, paired t-test p=0.008): significantly decreased
- EKG QTc interval ([1]; Screening): 414.8 ± 19.2 ms
- Serum Cholesterol ([1]; Screening): 185.8 ± 43.3 mg/100 ml
- Serum Glucose ([1]; Screening): 117.9 ± 36.2 mg/100 ml
- Serum Prolactin ([1]; Screening): 7.69 ± 5.91 ng/mL
- Serum TSH ([1]; Screening): 1.45 ± 0.64 μIU/ml
- Serum Triglycerides ([1]; Screening): 194.3 ± 87.8 mg/100 ml
- Serum LDL ([1]; Screening): 119.1 ± 26.0 mg/100 ml
- Serum HDL ([1]; Screening): 39.3 ± 16.5 mg/100 ml
- EKG QTc interval ([1]; Week 8): 406.8 ± 20.9 ms
- Serum Glucose ([1]; Week 8): 119.0 ± 33.5 mg/100 ml
- Serum Prolactin ([1]; Week 8): 7.85 ± 6.47 ng/mL
- Serum TSH ([1]; Week 8): 1.26 ± 0.72 μIU/ml
- Serum Triglycerides ([1]; Week 8): 237.6 ± 119.5 mg/100 ml
- Serum LDL ([1]; Week 8, p 0.002 vs screening): 90.9 ± 29.4 mg/100 ml
- Serum HDL ([1]; Week 8): 37.0 ± 17.4 mg/100 ml
- Serum Cholesterol ([1]; Week 8, p 0.008 vs screening): 166.6 ± 36.2 mg/100 ml
- Glucose levels, serum electrolyte panels, thyroid stimulating hormone, prolactin levels, and liver function tests ([1]; during the 8-week trial): unchanged
- Serum Androstenedione level ([2]; Week 0 (baseline)): 2.93 ± 1.30 ng/mL
- Serum Cortisol level ([2]; Week 0 (baseline)): 8.08 ± 2.80 μg/100 ml
- Serum DHEA level ([2]; Week 0 (baseline)): 7.85 ± 5.94 ng/mL
- Serum DHEAS level ([2]; Week 0 (baseline)): 124.72 ± 86.52 μg/100 ml
- Serum PGS (pregnenolone sulfate) level ([2]; Week 0 (baseline)): 33.4 ± 18.3 ng/mL
- Serum Total testosterone level ([2]; Week 0 (baseline)): 302.83 ± 158.53 ng/100 ml
- Serum Estradiol level ([2]; Week 0 (baseline)): 24.64 ± 6.21 pg/mL
- Serum ALLO (allopregnanolone) level ([2]; Week 0 (baseline)): 110.7 ± 78.9 pg/mL
- Serum Free testosterone level ([2]; Week 0 (baseline)): 7.96 ± 1.07 pg/mL
- Serum PG (pregnenolone) level ([2]; Week 0 (baseline)): 499.9 ± 313.6 pg/mL
- Serum Progesterone level ([2]; Week 0 (baseline)): 0.38 ± 0.15 ng/mL
- Serum Androstenedione level ([2]; Week 8): 3.01 ± 4.66 ng/mL
- Serum Cortisol level ([2]; Week 8): 7.96 ± 3.85 μg/100 ml
- Serum DHEA level ([2]; Week 8): 6.33 ± 3.26 ng/mL
- Serum DHEAS level ([2]; Week 8): 144.87 ± 97.30 μg/100 ml
- Serum PGS (pregnenolone sulfate) level ([2]; Week 8): 94.4 ± 14.3 ng/mL
- Serum Total testosterone level ([2]; Week 8): 303.08 ± 156.05 ng/100 ml
- Serum Estradiol level ([2]; Week 8): 25.42 ± 4.73 pg/mL
- Serum ALLO (allopregnanolone) level ([2]; Week 8): 823.1 ± 528.9 pg/mL
- Serum Free testosterone level ([2]; Week 8): 7.31 ± 2.04 pg/mL
- Serum PG (pregnenolone) level ([2]; Week 8): 2096.0 ± 999.4 pg/mL
- Serum Progesterone level ([2]; Week 8, listed as Pregnenolone): 2.17 ± 0.64 ng/mL
- Serum Progesterone level ([2]; Week 8, listed as pregnenolone): 2.17 ng/mL
- Increase in serum DHEAS levels over baseline ([2]; after 8 weeks of pregnenolone): approximately 16%
- Increase in serum PGS levels over baseline ([2]; after 8 weeks of pregnenolone): tripled
- Increase in serum progesterone over baseline ([2]; after 8 weeks of pregnenolone): over four-fold
- Serum testosterone, free testosterone, cortisol, DHEA, estradiol, or androstenedione levels ([2]; listed as Pregnenolone): did not result in downstream elevations
- Serum testosterone, free testosterone, cortisol, DHEA, estradiol, or androstenedione levels ([2]; listed as pregnenolone): did not increase
- Elevation in serum levels of PG over baseline [2, 4]: approximately four-fold elevations
- Increase in serum ALLO over baseline [2, 4]: five-fold elevations
- Elevation in serum levels of PG over baseline [2, 5]: approximate four-fold increase
- Increase in serum ALLO over baseline [2, 5]: five-fold
- Serious adverse event related to study medication ([3]; 8-week trial): No patients receiving pregnenolone experienced a serious adverse event
- Side effect: Akathisia [3, 6]: 0 N (%)
- Side effect: All Other Side Effects [3, 6]: 0 N (%)
- Side effect: Blurred Vision [3, 6]: 0 N (%)
- Side effect: Diarrhea [3, 6]: 0 N (%)
- Side effect: Drowsiness [3, 6]: 0 N (%)
- Side effect: Excitation/Agitation [3, 6]: 0 N (%)
- Side effect: Headache [3, 6]: 0 N (%)
- Side effect: Impaired Sexual Performance [3, 6]: 0 N (%)
- Side effect: Insomnia [3, 6]: 0 N (%)
- Side effect: Joint Pain/Stiffness [3, 6]: 0 N (%)
- Side effect: Malaise [3, 6]: 0 N (%)
- Side effect: Nasal Congestion [3, 6]: 0 N (%)
- Side effect: Peripheral Edema [3, 6]: 0 N (%)
- Side effect: Rigidity [3, 6]: 0 N (%)
- Side effect: Sweating [3, 6]: 0 N (%)
- Side effect: Tremor [3, 6]: 0 N (%)
- Side effect: Hypertension ([3]; change from baseline pre-randomization, n = 9, mild (<145/90)): 1 (11%)^b N (%)
- Side effect: Cold Extremities [3, 7]: 1 (11%)^a N (%)
- Side effect: Decreased Interest in Sex [3, 7]: 1 (11%)^a N (%)
- Side effect: Disorientation (to date, address, mayor, or MD name) [3, 7]: 2 (22%)^a N (%)
- Side effect: Dry mouth [3, 7]: 1 (11%)^a N (%)
- Side effect: Muscle Pain/Stiffness [3, 7]: 1 (11%)^a N (%)
- Side effect: Restlessness [3, 7]: 2 (22%)^a N (%)
- Side effect: Cold Extremities [3, 8]: one report of mild cold extremities; also recorded: one instance of mild cold extremities
- Side effect: Muscle Pain/Stiffness [3, 8]: one report of mild muscle pain/stiffness; also recorded: one instance of mild muscle pain/stiffness
- Side effect: Restlessness [3, 8]: two reports of mild restlessness; also recorded: two instances of mild restlessness
- Tolerability ([3]; doses up to 500 mg/day, 8 weeks): very well-tolerated
- Weight gain, blood pressure, or pulse rate changes ([3]; during the course of the study): did not demonstrate significant weight gain, blood pressure, or pulse rate changes
